Results published in patent US12378221B2, “Salts of obicetrapib and processes for their manufacture and intermediates thereof” (NewAmsterdam Pharma B.V., priority 2022, dated 2025).
Structures can show the parent of a compound that is named as a salt.

Assays:
[1] = Loss of crystallinity on drying, by XRPD (FIG. 18); format: physicochemical; settings: 48 hours at 55° C. at a pressure of 2 mbar
Method: Upon stress, crystalline obicetrapib HCl loses its crystallinity. In FIG. 18, pattern 2 reflects crystalline obicetrapib HCl subject to a mild drying treatment whereby surface solvent was removed and it can be seen that this compound is crystalline. By comparison, the sample whose x-ray powder diffraction was measured in pattern 1 was subject to a stronger drying treatment at 48 hours at 55° C. at a pressure of 2 mbar. […] The amorphous pattern, therefore, represents HCl obicetrapib which is not crystalline obicetrapib. It may be obicetrapib, but is believed to have HCl associated with the obicetrapib as a solvate and thus is HCl obicetrapib, but with a lower chloride content than typically found in the ranges found for crystalline obicetrapib HCl. In some embodiments, that chloride content is less than 0.1% by weight such as between about 0.01% and 0.1% by weight.
Diffraction patterns were measured using a Thermo Fisher Scientific ARL Equinox 1000 powder diffractometer. The diffractometer is equipped with a copper source and a germanium (111) monochromator providing monochromatic Cu Kα1 radiation, and a position sensitive gas-ionization detector.
Samples were measured in reflection mode using an A1 sample holder without any further preparation (i.e., grinding). […]

[2] = Moisture uptake / hygroscopicity; format: physicochemical
Text: When exposed to relative humidities approaching 90%, moisture uptake has been measured to be typically less than about 5% for example. […] Other drawbacks commonly associated with manufacturing and using amorphous materials are similarly not present. For example, amorphous materials are often challenging to make chemically pure.

[3] = Physical stability at 70° C./75% relative humidity, by XRPD; format: physicochemical
Text: FIG. 6 is a plot of x-ray powder diffraction pattern taken of crystalline obicetrapib hemicalcium, and FIG. 7 is a plot of x-ray powder diffraction patterns taken of crystalline obicetrapib hemicalcium under stress conditions. In FIG. 7, there are four diffraction patterns shown based on stability study set forth in Example 27. Pattern 1 is an x-ray powder diffraction pattern of a sample of amorphous obicetrapib hemicalcium. Pattern 2 is the x-ray powder diffraction pattern of a sample of crystalline obicetrapib hemicalcium. In pattern 3, the sample of crystalline obicetrapib hemicalcium was exposed to 70° C. at 75% relative humidity for one day. […] was taken before the sample was placed on stability.
XRPD was performed with Panalytical X'Pert^3 Powder diffractometer using an incident beam of Cu radiation produced using an Empyran tube, fine focused source, on a silicon zero-background holder. […] Approximately 5 to 10 mg of sample was placed on a silicon zero-background holder and flattened manually using an aluminum spatula to minimize difference in the overall sample height. The holder was then loaded on the instrument for analysis. The XRPD parameters used are listed in Table 10.
Stability study was conducted on crystalline and amorphous forms of obicetrapib at 70° C./75% relative humidity (RH). The solids were placed into a 4.0 ml glass vial without caps (open condition) and stored at 70° C./75% RH. […] The solids were analyzed by XRPD for physical stability and by HPLC for chemical purity. The sample collected at each time point was dissolved in methanol before HPLC analysis. In order to minimize the effect of potential analyte adsorption on the filter, the initial 0.5 mL of supernatant passing through the filter was discarded prior to collecting sample for HPLC analysis. Purity for each sample was determined based on peak area percent and compared to the sample at T=0.

[4] = target: T1, Cholesterol Ester Transfer Protein (CETP) (Homo sapiens, UniProt P11597); settings: repeated daily dosages (once a day) as low as 2.5 mg; cited from earlier work
T1 construct: CETP is a plasma protein secreted primarily by liver and adipose tissue; host or cells: endogenous plasma CETP of dosed clinical-study subjects
T1 sequence (P11597 18-493): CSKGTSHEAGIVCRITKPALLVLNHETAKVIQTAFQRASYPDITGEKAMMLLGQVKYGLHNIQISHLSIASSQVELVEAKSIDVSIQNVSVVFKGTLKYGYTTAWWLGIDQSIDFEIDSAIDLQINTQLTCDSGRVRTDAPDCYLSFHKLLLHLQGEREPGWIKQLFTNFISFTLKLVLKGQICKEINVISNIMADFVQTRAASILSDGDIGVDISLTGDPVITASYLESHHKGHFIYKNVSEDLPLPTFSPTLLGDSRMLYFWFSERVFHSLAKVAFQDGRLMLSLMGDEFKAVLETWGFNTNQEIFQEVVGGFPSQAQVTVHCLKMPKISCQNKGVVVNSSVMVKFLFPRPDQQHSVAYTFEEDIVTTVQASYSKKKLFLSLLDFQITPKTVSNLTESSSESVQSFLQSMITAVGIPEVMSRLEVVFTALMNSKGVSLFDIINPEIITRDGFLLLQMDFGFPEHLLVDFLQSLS

[5] = clinical studies; cited from earlier work
[6] = Solubility in water at 20° C.; format: physicochemical
Text: Solubility is especially challenging with obicetrapib. […] It would be desirable to have a solid form of obicetrapib that would deliver a larger amount of obicetrapib.

For `CCOC(=O)N1c2ccc(C(F)(F)F)cc2[C@@H](N(Cc2cc(C(F)(F)F)cc(C(F)(F)F)c2)c2ncc(OCCCC(=O)O)cn2)C[C@H]1CC` [crystalline obicetrapib HCl, (2R,4S)-4-{[3,5-bis(trifluoromethyl)benzyl]-[5-(3-carboxypropoxy)pyrimidin-2-yl]amino}-2-ethyl-6-trifluoromethyl-3,4-dihydro-2H-quinoline-1-carboxylic acid ethyl ester hydrochloride], the “solid form after drying (XRPD)” value [1] was “changed the material from crystalline to amorphous” and the hygroscopicity [2] was “hygroscopic”.
For `CCOC(=O)N1c2ccc(C(F)(F)F)cc2[C@@H](N(Cc2cc(C(F)(F)F)cc(C(F)(F)F)c2)c2ncc(OCCCC(=O)O)cn2)C[C@H]1CC` [Amorphous obicetrapib hemicalcium], the “physical stability of solid form (XRPD)” value ([3]; 7 days, open vial) was “remained amorphous” and the “physical stability of solid form (XRPD)” value ([3]; 14 days) was “remained amorphous”.
In the case of `CCOC(=O)N1c2ccc(C(F)(F)F)cc2[C@@H](N(Cc2cc(C(F)(F)F)cc(C(F)(F)F)c2)c2ncc(OCCCC(=O)[O-])cn2)C[C@H]1CC.CCOC(=O)N1c2ccc(C(F)(F)F)cc2[C@@H](N(Cc2cc(C(F)(F)F)cc(C(F)(F)F)c2)c2ncc(OCCCC(=O)[O-])cn2)C[C@H]1CC.[Ca+2]` [Crystalline obicetrapib hemicalcium, reference compound], the “physical stability of solid form (XRPD)” value ([3]; 7 days, open vial) is reported as “the result remains the same” and the “physical stability of solid form (XRPD)” value ([3]; one day, open vial) is reported as “near total loss of crystallinity”.
In the case of `CCOC(=O)N1c2ccc(C(F)(F)F)cc2[C@@H](N(Cc2cc(C(F)(F)F)cc(C(F)(F)F)c2)c2ncc(OCCCC(=O)O)cn2)C[C@H]1CC` [obicetrapib, (2R,4S)-4-{[3,5 bis(trifluoromethyl)benzyl]-[5-(3-carboxypropoxy)pyrimidin-2-yl]amino}-2-ethyl-6-trifluoromethyl-3,4-dihydro-2H-quinoline-1-carboxylic acid ethyl ester], the CETP inhibition [4] is given as “near complete CETP inhibition”, the serious side effects [5] is given as “does not lead to serious side effects” and the solubility in water [6] is given as “less than 0.1 mg/mL”.
